Earlier results, collected in PMC9145865, “Effects of Rare Phytocannabinoids on the Endocannabinoid System of Human Keratinocytes” (International Journal of Molecular Sciences, 2022).

System: transformed human keratinocytes
Set-up: method as in PMID 17157480
Conditions: hyperproliferative conditions; ref [46]; cited from earlier work

SMILES | proliferation of transformed human keratinocytes
C=C(C)[C@@H]1CCC(C)=C[C@H]1c1c(O)cc(CCCCC)cc1O [CBD, cannabidiol] | inhibit the proliferation
CCCCCc1cc(O)c2c(c1)OC(C)(C)[C@@H]1CCC(C)=C[C@@H]21 [Δ^9-THC, Δ^9-tetrahydrocannabinol] | inhibit the proliferation
